These results are taken from US20050282743A1, “Molecular interactions in cells” (Arbor Vita Corporation, priority 2001, published 2005).

Ends that are not written are not given here. Peptide text beside a SMILES is read from it. * marks the point of attachment. Biotin = O=C1N[C@H]2[C@H](CS[C@H]2CCCCC(=O)*)N1

What all share (assay type): binding
In assay [1] the target is T1, PSD95 (PDZ Domain 1, 2, 3) (Homo sapiens, UniProt P78352).
T1 construct: When more than one PDZ domain was cloned, the DNA portion cloned represents the PDZ domains and the cDNA portion located between individual domains; made in house; host or cells: E. coli (DH5alpha, BL21 or JM109)
T1 sequence (P78352 58-398 limits assumed): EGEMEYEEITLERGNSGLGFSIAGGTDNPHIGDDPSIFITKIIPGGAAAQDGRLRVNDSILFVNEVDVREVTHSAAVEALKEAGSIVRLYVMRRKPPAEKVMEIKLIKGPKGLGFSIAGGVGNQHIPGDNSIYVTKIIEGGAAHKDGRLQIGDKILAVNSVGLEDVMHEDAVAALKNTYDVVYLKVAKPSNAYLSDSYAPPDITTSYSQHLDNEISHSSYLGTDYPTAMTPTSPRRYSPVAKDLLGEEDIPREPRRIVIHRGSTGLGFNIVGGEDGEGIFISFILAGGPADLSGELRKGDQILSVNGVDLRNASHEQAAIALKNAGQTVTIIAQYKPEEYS
The experiment in a line: G' assay, TABLE 12. Conditions: A450 nm class of biotinylated PL peptide bound; 0 in conc columns = peptide 10 uM, protein 5 ug/ml. The procedure, abridged: (§1)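 PL peptide binding to PDZ domain protein, peptide at 10 uM; protein at 5 ug/ml unless another concentration is listed for Kd determination. Bound peptide read at A450 nm and binned into classes 0–5.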

Another assay concerns the target T2, DLG1 (PDZ Domain 1, 2) (Homo sapiens, UniProt Q12959).
T2 construct: made in house; host or cells: E. coli (DH5alpha, BL21 or JM109)
The assay is described as follows: G' assay, TABLE 12. The settings on record: A450 nm class of biotinylated PL peptide bound; 0 in conc columns = peptide 10 uM, protein 5 ug/ml. An outline of the steps:
as §1

A further assay addresses T3, NeDLG (PDZ Domain 1, 2) (Homo sapiens, UniProt Q92796).
T3 construct: When more than one PDZ domain was cloned, the DNA portion cloned represents the PDZ domains and the cDNA portion located between individual domains; made in house; host or cells: E. coli (DH5alpha, BL21 or JM109)
T3 sequence (Q92796 129-315 limits assumed): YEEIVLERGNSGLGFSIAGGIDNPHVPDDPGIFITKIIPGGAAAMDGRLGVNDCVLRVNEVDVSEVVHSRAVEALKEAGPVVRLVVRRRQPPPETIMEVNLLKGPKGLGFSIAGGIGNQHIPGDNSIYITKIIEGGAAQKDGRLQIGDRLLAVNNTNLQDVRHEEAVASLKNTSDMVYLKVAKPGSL
The assay is described as follows: G' assay, TABLE 12. The settings on record: A450 nm class of biotinylated PL peptide bound; 0 in conc columns = peptide 10 uM, protein 5 ug/ml. The procedure, abridged: as §1

For assay [2], the target named is T4, PDZ protein (GST-PDZ fusion) (Homo sapiens, UniProt Q9ULJ8).
T4 construct: made in house; host or cells: E. coli (DH5alpha, BL21 or JM109)
T4 sequence (Q9ULJ8 whole entry, the tested form may be a part): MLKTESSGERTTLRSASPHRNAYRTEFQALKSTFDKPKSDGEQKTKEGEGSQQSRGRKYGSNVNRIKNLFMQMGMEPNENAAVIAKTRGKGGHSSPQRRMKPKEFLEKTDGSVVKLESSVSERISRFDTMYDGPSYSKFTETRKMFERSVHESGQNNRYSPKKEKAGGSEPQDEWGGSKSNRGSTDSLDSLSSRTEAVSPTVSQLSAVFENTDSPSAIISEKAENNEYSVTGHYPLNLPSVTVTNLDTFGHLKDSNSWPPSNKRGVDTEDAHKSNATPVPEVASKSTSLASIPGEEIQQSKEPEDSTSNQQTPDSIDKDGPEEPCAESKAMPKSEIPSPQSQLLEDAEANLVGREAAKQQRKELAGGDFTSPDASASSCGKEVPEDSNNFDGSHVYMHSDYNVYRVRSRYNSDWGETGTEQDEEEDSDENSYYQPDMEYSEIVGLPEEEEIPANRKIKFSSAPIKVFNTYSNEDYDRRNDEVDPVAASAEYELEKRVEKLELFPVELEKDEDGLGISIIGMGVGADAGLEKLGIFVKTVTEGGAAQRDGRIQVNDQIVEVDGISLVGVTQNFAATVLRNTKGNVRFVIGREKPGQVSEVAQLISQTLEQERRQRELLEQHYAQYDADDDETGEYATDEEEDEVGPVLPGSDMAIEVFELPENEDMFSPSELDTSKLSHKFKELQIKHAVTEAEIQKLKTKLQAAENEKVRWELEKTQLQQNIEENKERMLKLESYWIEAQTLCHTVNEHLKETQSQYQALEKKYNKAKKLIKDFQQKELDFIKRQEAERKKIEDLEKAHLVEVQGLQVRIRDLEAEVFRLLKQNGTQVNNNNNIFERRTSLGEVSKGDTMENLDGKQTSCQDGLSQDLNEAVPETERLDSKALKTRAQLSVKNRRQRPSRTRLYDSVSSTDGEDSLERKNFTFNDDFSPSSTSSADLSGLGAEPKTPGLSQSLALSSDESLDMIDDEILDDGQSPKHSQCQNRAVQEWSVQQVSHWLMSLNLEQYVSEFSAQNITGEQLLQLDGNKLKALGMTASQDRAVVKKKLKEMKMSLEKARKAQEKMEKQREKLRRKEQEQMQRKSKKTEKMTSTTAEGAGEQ
The assay is described as follows: G' assay (10 uM PL peptide), results of TABLE 7 and TABLE 12. Conditions: PDZ KIAA1222, PDZ Domain 1. The procedure, abridged: (§2)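 Same steps as the G-zero format, apart from a peptide concentration of 10 uM in place of 20 uM in step 2. Amino-terminally biotinylated PL peptides bind GST-PDZ fusions, and retained peptide is quantified by 450 nm absorbance.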

A further assay addresses T5, KIAA807 (Homo sapiens, UniProt Q6P0Q8).
T5 construct: made in house; host or cells: E. coli (DH5alpha, BL21 or JM109)
T5 sequence (Q6P0Q8 1104-1192 limits assumed): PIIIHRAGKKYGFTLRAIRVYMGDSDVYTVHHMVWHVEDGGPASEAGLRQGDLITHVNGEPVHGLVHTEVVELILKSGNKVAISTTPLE
The assay is described as follows: G' assay, TABLE 12. The settings on record: A450 nm class of biotinylated PL peptide bound; 0 in conc columns = peptide 10 uM, protein 5 ug/ml. An outline of the steps:
as §1

The target of assay [3] is T6, PDZ protein (GST-PDZ fusion) (Homo sapiens, UniProt Q9NR12).
T6 construct: made in house; host or cells: E. coli (DH5alpha, BL21 or JM109)
T6 sequence (Q9NR12 whole entry, the tested form may be a part): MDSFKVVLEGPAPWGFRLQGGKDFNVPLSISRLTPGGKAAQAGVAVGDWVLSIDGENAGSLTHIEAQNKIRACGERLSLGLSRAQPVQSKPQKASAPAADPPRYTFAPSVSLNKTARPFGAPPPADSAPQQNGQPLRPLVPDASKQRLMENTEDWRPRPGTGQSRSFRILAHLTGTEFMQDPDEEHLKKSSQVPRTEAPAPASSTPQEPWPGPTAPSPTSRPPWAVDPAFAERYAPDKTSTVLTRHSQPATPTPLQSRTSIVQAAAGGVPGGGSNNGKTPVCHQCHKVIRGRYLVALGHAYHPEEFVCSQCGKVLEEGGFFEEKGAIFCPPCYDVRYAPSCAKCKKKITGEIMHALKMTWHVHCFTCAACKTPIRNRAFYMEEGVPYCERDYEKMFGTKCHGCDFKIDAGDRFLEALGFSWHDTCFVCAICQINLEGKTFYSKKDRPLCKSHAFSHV
The experiment in a line: G' assay (10 uM PL peptide), results of TABLE 7 and TABLE 12. Conditions: PDZ ENIGMA, PDZ Domain 1. An outline of the steps: as §2

In assay [4] the target is T7, PDZ protein (GST-PDZ fusion) (Homo sapiens, UniProt Q99767).
T7 construct: made in house; host or cells: E. coli (DH5alpha, BL21 or JM109)
T7 sequence (Q99767 1-749): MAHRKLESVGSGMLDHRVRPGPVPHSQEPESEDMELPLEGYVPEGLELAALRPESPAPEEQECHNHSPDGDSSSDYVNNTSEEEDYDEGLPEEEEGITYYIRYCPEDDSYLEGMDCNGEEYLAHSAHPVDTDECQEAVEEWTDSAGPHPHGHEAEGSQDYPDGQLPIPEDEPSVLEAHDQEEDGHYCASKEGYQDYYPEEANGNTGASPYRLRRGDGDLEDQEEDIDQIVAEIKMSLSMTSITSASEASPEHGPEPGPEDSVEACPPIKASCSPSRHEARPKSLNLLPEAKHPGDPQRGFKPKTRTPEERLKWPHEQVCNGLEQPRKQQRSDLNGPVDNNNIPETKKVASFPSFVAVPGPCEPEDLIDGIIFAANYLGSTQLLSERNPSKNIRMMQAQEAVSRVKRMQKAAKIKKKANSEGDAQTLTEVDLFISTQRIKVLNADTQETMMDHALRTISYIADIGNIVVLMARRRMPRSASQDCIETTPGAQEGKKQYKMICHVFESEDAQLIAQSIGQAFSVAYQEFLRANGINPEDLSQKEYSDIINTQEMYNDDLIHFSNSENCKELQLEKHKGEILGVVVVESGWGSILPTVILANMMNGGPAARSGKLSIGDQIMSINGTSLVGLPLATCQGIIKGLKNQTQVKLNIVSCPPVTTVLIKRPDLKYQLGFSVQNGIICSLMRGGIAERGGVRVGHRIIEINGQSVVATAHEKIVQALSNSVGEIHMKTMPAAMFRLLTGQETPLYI
The assay is described as above. Conditions: PDZ X11-beta. The procedure, abridged:
as §2

T2 sequence (Q12959 213-413 limits assumed): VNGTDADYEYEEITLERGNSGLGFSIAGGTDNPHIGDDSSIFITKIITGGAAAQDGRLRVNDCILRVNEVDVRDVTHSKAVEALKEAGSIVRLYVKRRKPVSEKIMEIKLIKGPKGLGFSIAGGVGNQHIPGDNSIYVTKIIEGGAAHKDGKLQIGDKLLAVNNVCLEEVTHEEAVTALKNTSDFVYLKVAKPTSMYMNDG

Take “ARHRVTSYTSSSVNVSSNL (Biotin-ARHRVTSYTSSSVNVSSNL) [IL-8RB]”: in assay [1], the Classification is recorded as 1 (A450 nm 0-1).
In the case of `CC[C@H](C)[C@H](NC(=O)[C@H](CCC(=O)O)NC(=O)[C@H](CC(N)=O)NC(=O)[C@H](CCCNC(=N)N)NC(=O)[C@H](Cc1ccccc1)NC(=O)[C@H](CC(N)=O)NC(=O)[C@H](CO)NC(=O)[C@H](CC(N)=O)NC(=O)[C@H](CCC(=O)O)NC(=O)[C@H](CO)NC(=O)[C@H](CC(=O)O)NC(=O)[C@H](CO)NC(=O)[C@@H](NC(=O)[C@@H](NC(=O)[C@H](CC(=O)O)NC(=O)[C@H](CCCCN)NC(=O)CCCC[C@@H]1SC[C@@H]2NC(=O)N[C@@H]21)[C@@H](C)CC)[C@@H](C)O)C(=O)N[C@@H](CCC(N)=O)C(=O)N[C@@H](CO)C(=O)N[C@@H](CC(C)C)C(=O)N[C@H](C(=O)O)C(C)C` [CD95] (Biotin-KDITSDSENSNFRNEIQSLV-OH; C-terminus assumed), the Classification was 2 (A450 nm 1-2) at DLG1 (PDZ Domain 1, 2); 1 (A450 nm 0-1) at NeDLG (PDZ Domain 1, 2); 1 (A450 nm 0-1) in assay [1].
With `CC[C@H](C)[C@H](NC(=O)[C@H](Cc1ccc(O)cc1)NC(=O)[C@@H](NC(=O)[C@@H]1CCCN1C(=O)[C@H](CCC(N)=O)NC(=O)[C@H](CCC(=O)O)NC(=O)[C@H](CCC(N)=O)NC(=O)[C@H](C)NC(=O)[C@@H](NC(=O)[C@H](CC(C)C)NC(=O)[C@H](CC(C)C)NC(=O)[C@H](CCCNC(=N)N)NC(=O)[C@H](Cc1ccc(O)cc1)NC(=O)[C@H](CCSC)NC(=O)[C@H](C)NC(=O)[C@H](C)NC(=O)[C@@H]1CCCN1C(=O)[C@H](CCSC)NC(=O)[C@@H](NC(=O)[C@H](CCCCN)NC(=O)CCCC[C@@H]1SC[C@@H]2NC(=O)N[C@@H]21)[C@@H](C)O)[C@@H](C)O)C(C)C)C(=O)O` [MINT-1] (Biotin-KTMPAAMYRLLTAQEQPVYI-OH; C-terminus assumed), the Classification in assay [2] is reported as 1 (A450 nm 0-1).
As for `CC[C@H](C)[C@H](NC(=O)[C@H](CCC(N)=O)NC(=O)CCCC[C@@H]1SC[C@@H]2NC(=O)N[C@@H]21)C(=O)N[C@@H](CO)C(=O)N1CCC[C@H]1C(=O)NCC(=O)NCC(=O)N[C@@H](CC(C)C)C(=O)N[C@@H](CCC(=O)O)C(=O)N1CCC[C@H]1C(=O)N1CCC[C@H]1C(=O)N[C@@H](CO)C(=O)N[C@@H](CCC(=O)O)C(=O)N[C@@H](CCCCN)C(=O)N[C@@H](Cc1c[nH]cn1)C(=O)N[C@@H](Cc1ccccc1)C(=O)N[C@@H](CCCNC(=N)N)C(=O)N[C@@H](CCC(=O)O)C(=O)N[C@H](C(=O)N[C@@H](CCC(=O)O)C(=O)N[C@H](C(=O)O)C(C)C)[C@@H](C)O` [Tax], the Classification on DLG1 (PDZ Domain 1, 2) was 5 (A450 nm of 4 more than 2× repeated); at KIAA807, 5 (A450 nm of 4 more than 2× repeated); at NeDLG (PDZ Domain 1, 2), 5 (A450 nm of 4 more than 2× repeated); in assay [1] it was 5 (A450 nm of 4 more than 2× repeated).
`CC[C@H](C)[C@H](NC(=O)[C@H](CO)NC(=O)[C@H](CCC(=O)O)NC(=O)[C@H](Cc1ccc(O)cc1)NC(=O)[C@H](CC(=O)O)NC(=O)[C@H](CC(N)=O)NC(=O)[C@H](CCC(=O)O)NC(=O)[C@H](CCCCN)NC(=O)CCCC[C@@H]1SC[C@@H]2NC(=O)N[C@@H]21)C(=O)N[C@@H](CO)C(=O)N[C@@H](CC(=O)O)C(=O)N[C@@H](CC(C)C)C(=O)N[C@@H](CCC(N)=O)C(=O)N[C@@H](CCC(N)=O)C(=O)NCC(=O)N[C@@H](CCCNC(=N)N)C(=O)N[C@@H](CC(=O)O)C(=O)N[C@H](C(=O)N[C@H](C(=O)N[C@@H](CCCNC(=N)N)C(=O)N[C@@H](CC(C)C)C(=O)O)[C@@H](C)O)[C@@H](C)CC` [PAG] (Biotin-KENDYESISDLQQGRDITRL-OH; C-terminus assumed): at KIAA807, the Classification was 5 (A450 nm of 4 more than 2× repeated).
With “QATSRNGHSARQHVVADTEL (Biotin-QATSRNGHSARQHVVADTEL) [CD34]”, the Classification with KIAA807 was 5 (A450 nm of 4 more than 2× repeated).
As for “LASKSAEEGKQIPDSLSTDL (Biotin-LASKSAEEGKQIPDSLSTDL) [Dock2]”, the Classification with KIAA807 was 5 (A450 nm of 4 more than 2× repeated).
Consider `CC(C)C[C@H](NC(=O)[C@H](CC(=O)O)NC(=O)[C@H](CO)NC(=O)[C@H](CCC(=O)O)NC(=O)CNC(=O)[C@H](Cc1ccc(O)cc1)NC(=O)[C@H](CC(C)C)NC(=O)[C@H](C)NC(=O)[C@H](CO)NC(=O)[C@H](CO)NC(=O)[C@H](Cc1ccccc1)NC(=O)[C@H](C)NC(=O)[C@H](C)NC(=O)[C@H](Cc1ccc(O)cc1)NC(=O)[C@H](CC(=O)O)NC(=O)[C@H](CC(C)C)NC(=O)[C@H](C)NC(=O)CNC(=O)[C@@H]1CCCN1C(=O)[C@@H](NC(=O)CCCC[C@@H]1SC[C@@H]2NC(=O)N[C@@H]21)C(C)C)C(=O)O` [a-actinin 2] (Biotin-VPGALDYAAFSSALYGESDL-OH; C-terminus assumed), for which the Classification in assay [3] is 5 (A450 nm of 4 more than 2× repeated).
The same measure, in the same setting: the same measure for “VHDAESSDEDGYDWGPATDL (Biotin-VHDAESSDEDGYDWGPATDL) [zona occludens 3 (ZO-3)]”: 1 (A450 nm 0-1).
As for “ISGTPTSTMVHGMTSSSSVV (Biotin-ISGTPTSTMVHGMTSSSSVV) [Clasp-2]”, the Classification with NeDLG (PDZ Domain 1, 2) was 2 (A450 nm 1-2); in assay [1], 2 (A450 nm 1-2).
For the molecule “ALVLIAFCIIRRRPSAYQAL (Biotin-ALVLIAFCIIRRRPSAYQAL) [CD68]”, the Classification in assay [4] (PDZ Domain 2) is on record as 1 (A450 nm 0-1).
Take “A2AA_HUMAN (modified) (Biotin-HDFRRAFKKILARGDRKRIV; not fully specified)”: the values for the Classification in assay [4] (PDZ Domain 1) and in assay [4] (PDZ Domain 2) were 2 (A450 nm 1-2) and 1 (A450 nm 0-1), respectively.
As for “GGGGGSGGGGGSGIESVKI [GLUR2 (glutamate receptor 2-modified)]”, in assay [3], the Classification is 1 (A450 nm 0-1).
For the molecule `CC[C@H](C)[C@H](NC(=O)[C@H](CC(=O)O)NC(=O)[C@H](CCC(=O)O)NC(=O)[C@H](CCCNC(=N)N)NC(=O)[C@@H](NC(=O)CCCC[C@@H]1SC[C@@H]2NC(=O)N[C@@H]21)[C@@H](C)O)C(=O)N[C@@H](Cc1ccc(O)cc1)C(=O)N[C@H](C(=O)N[C@@H](CC(N)=O)C(=O)N[C@@H](Cc1ccc(O)cc1)C(=O)N1CCC[C@H]1C(=O)N[C@H](C(=O)N[C@@H](Cc1ccccc1)C(=O)N[C@@H](CO)C(=O)N[C@@H](CCCNC(=N)N)C(=O)N[C@@H](CCCNC(=N)N)C(=O)N1CCC[C@H]1C(=O)N[C@@H](CCCCN)C(=O)N[C@H](C(=O)N[C@@H](CCCNC(=N)N)C(=O)N[C@H](C(=O)O)C(C)C)[C@@H](C)O)[C@@H](C)O)C(C)C` [DNAM-1] (Biotin-TREDIYVNYPTFSRRPKTRV-OH; C-terminus assumed), the Classification on DLG1 (PDZ Domain 1, 2) is 1 (A450 nm 0-1); at NeDLG (PDZ Domain 1, 2) it was 2 (A450 nm 1-2); in assay [1], 2 (A450 nm 1-2).
Regarding “ELLQFCRTPNPALKNGQYWV (Biotin-ELLQFCRTPNPALKNGQYWV)”, the Classification in assay [4] (PDZ Domain 2) is 2 (A450 nm 1-2).
